Source: patent US4816447A, “Anti-viral guanine compounds” (priority 1984, dated 1989)

Experiments:
[1] = target: T1, guanosine monophosphate kinase from hog brain (Sus scrofa, UniProt P31006); assay: Kinetic parameters with purified guanosine monophosphate kinase; type: biochemical; conditions: for Vmax: 25°, pH 7.6
T1 sequence (P31006 1-198): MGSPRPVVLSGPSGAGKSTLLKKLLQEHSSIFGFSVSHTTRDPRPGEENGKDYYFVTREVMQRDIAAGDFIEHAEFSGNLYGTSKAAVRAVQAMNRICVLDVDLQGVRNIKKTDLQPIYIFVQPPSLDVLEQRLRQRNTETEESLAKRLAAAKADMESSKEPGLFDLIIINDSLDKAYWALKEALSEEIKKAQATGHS

[2] = test system: HSV-1 PAA ®1; conditions: HSV-1 PAA R1
[3] = test system: Recombinant 6-19; assay: Drug sensitivity of HSV-1/HSV-2 intertypic Recombinant 6-19; conditions: Recombinant 6-19
[4] = test system: Recombinant 6-30; assay: Drug sensitivity of HSV-1/HSV-2 intertypic Recombinant 6-30; conditions: Recombinant 6-30
[5] = test system: Recombinant 6-34; assay: Drug sensitivity of HSV-1/HSV-2 intertypic Recombinant 6-34; conditions: Recombinant 6-34
[6] = test system: HSV-2 TS6
[7] = test system: Recombinant 6-26; assay: Drug sensitivity of HSV-1/HSV-2 intertypic Recombinant 6-26; conditions: Recombinant 6-26
[8] = test system: HSV-1 wild type Strain 17; assay: Drug sensitivity of HSV-1 wild type Strain 17; conditions: HSV-1 wild type Strain 17
[9] = Comparative solubilities in pH 7.2 buffer at 25°; type: physicochemical; conditions: aqueous buffer; pH 7.2 phosphate buffer, 25°
Description: Comparative Solubilities in pH 7.2 Buffer at 25°
Solubilities were determined by suspending an excess amount of the compound in approximately 0.15 molar phosphate buffer (pH 7.2) and shaking overnight in a water bath at 25° to give a saturated solution. The concentration of the compound in the filtered solution was calculated on the basis of spectrophotometric measurements, i.e. comparison of the ultraviolet absorbance at the λmax for the saturated solution with the absorbance value observed for a known concentration of the compound.

[10] = test system: Herpes simplex virus type I (HSV-1), strain Schooler; assay: Treatment of Herpes simplex virus infection in mice, repeat experiment (Table III); type: in vivo, HSV-1; ICR/Ha mice; conditions: for Percent Survival: at 15 days
Description: Twenty gram ICR/Ha mice were injected intraperitoneally (ip) with 0.5 ml of a 10^-5 dilution of a stock preparation of Herpes simplex virus type I (HSV-1), strain Schooler. This virus challenge infected each animal with approximately 100 LD50. […] The placebo group was composed of 45 animals. All compounds were solubilized in physiological saline, pH 11.5.

[11] = test system: Herpes simplex virus type I (HSV-1), strain Schooler; assay: Treatment of Herpes simplex virus infection in mice, intraperitoneal HSV-1, subcutaneous treatment (Table II); type: in vivo, HSV-1; ICR/Ha mice; conditions: for Percent Survival: at 15 days
[12] = test system: guanosine monophosphate kinase and extract of HSV1-infected HeLa cells; type: biochemical; conditions: gmp kinase, 4 h
Description: To the rest of the incubation mixtures were now added 0.04 units of guanosine monophosphate kinase and 20 μl of an extract of HSV1-infectedHeLa cells [The cells were infected with the virus at a multiplicity of 10 and harvested 8 hours later; they were suspended in a solution containing 0.35M KH2 PO4, pH 7.5, 0.5 mM dithiothreitol, 0.2% polyoxyethylene(9)octylphenol (Nonidet P-40), 14% glycerol at 50 mg/ml and after 30 minutes at 4° were centrifuged at […]; the supernatant liquid was the crude extract.] Incubation was continued at 30° for 4 more hours, after which samples were analyzed by HPLC and the amount of the triphosphate derivatives of each compound determined by integration of the area under the respective chromatographic peak.

[13] = Genotoxicity; conditions: qualitative statement
[14] = test system: Herpes simplex virus type 2; assay: Tube dilution assay, viral cytopathology of HSV-2 in rabbit kidney cell cultures; conditions: Human alphaherpesvirus 2, in Oryctolagus cuniculus, read-out: Minimum Effective Concentration
[15] = test system: Herpes simplex virus type 1; assay: Tube dilution assay, viral cytopathology of HSV-1 in rabbit kidney cell cultures; conditions: Human alphaherpesvirus 1, in Oryctolagus cuniculus, read-out: Minimum Effective Concentration, Strain Schooler
[16] = test system: mycoplasmal growth; assay: Inhibition of mycoplasmal growth in chickens; type: in vivo; conditions: systemic, 875 μg/bird

Nc1nc2c(ncn2COC(CO)COP(=O)(O)O)c(=O)[nH]1 (stereo not drawn) [Compound of Formula II Monophosphate]
relative efficiency as substrate (Vmax /Km) vs acycloguanosine monophosphate [1]: 492 to 1
Vmax [1]: 7.1 µg/min/mg

O=C(O)CP(=O)(O)O [PAA, phosphonoacetic acid, reference compound]
Sensitivity (S) or Resistance (R) [2]: R
Sensitivity (S) or Resistance (R) [3]: R
Sensitivity (S) or Resistance (R) [4]: S
Sensitivity (S) or Resistance (R) [5]: R
Sensitivity (S) or Resistance (R) ([6]; HSV-2 TS6): S
sensitivity of HSV-2 Ts6 ([6]; HSV-2 Ts6): sensitive
Sensitivity (S) or Resistance (R) [7]: S
Sensitivity (S) or Resistance (R) [8]: S

Nc1nc2c(ncn2[C@H]2C[C@H](O)[C@@H](COP(=O)(O)O)O2)c(=O)[nH]1 [Deoxyguanosine monophosphate, deoxyguanosine monophosphate, reference compound]
Vmax [1]: 17.2 µg/min/mg

Nc1nc2c(ncn2COCC(O)CO)c(=O)[nH]1 (stereo not drawn) [Compound of Formula I, 9-(2,3-Dihydroxy-1-propoxymethyl)guanine]
solubility [9]: 3600 µg/mL
Avg. Survival Time ([10]; 3.1 mg/kg/day s.c.): 7.2 days
Percent Survival ([10]; 3.1 mg/kg/day s.c.): 6%
Avg. Survival Time ([10]; 12.5 mg/kg/day s.c.): 9.8 days
Percent Survival ([10]; 12.5 mg/kg/day s.c.): 33%
Avg. Survival Time ([10]; 50 mg/kg/day s.c.): 10.5 days
Percent Survival ([10]; 50 mg/kg/day s.c.): 36%
calculated average relative potency to acycloguanosine (95% CI) ([10]; combined results of both mouse experiments): 9.2
Avg. Survival Time ([11]; 3.1 mg/kg/day s.c.): 6.3 days
Percent Survival ([11]; 3.1 mg/kg/day s.c.): 0%
Avg. Survival Time ([11]; 12.5 mg/kg/day s.c.): 9.0 days
Percent Survival ([11]; 12.5 mg/kg/day s.c.): 26%
Avg. Survival Time ([11]; 50 mg/kg/day s.c.): 11.8 days
Percent Survival ([11]; 50 mg/kg/day s.c.): 60%
converted to the triphosphate [12]: 55%
genotoxicity [13]: lack of genotoxicity
minimal effective concentration [14]: 3 to 6 µg/mL
minimal effective concentration [15]: 1 to 3 µg/mL

CCCCCCCC(=O)OCC(COC(=O)CCCCCCC)OCn1cnc2c(=O)[nH]c(N)nc21 [Example 11, 9-(1,3-Dioctanoyloxy-2-propoxymethyl)guanine]
inhibition of mycoplasmal growth [16]: 75%
